Measurements published in PubChem BioAssay (NCI).
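Grown in 96-well plates, cells were treated for 48 hours with each compound at five concentrations. Insufficient inhibition: endpoint recorded as highest concentration tested. At the GI50, growth is halved. TGI is the concentration that stops growth completely.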

What was measured:
Assay in all cases: NCI anticancer screen, dose series, 48 h
OVCAR-5 ovarian = tested on: OVCAR-5 ovarian
OVCAR-3 ovarian = tested on: OVCAR-3 ovarian
HOP-92 NSCLC = tested on: HOP-92 NSCLC
SF-268 CNS = tested on: SF-268 CNS
HOP-62 NSCLC = tested on: HOP-62 NSCLC
SR leukemia = tested on: SR leukemia
T-47D breast = tested on: T-47D breast
HCT-15 colon = tested on: HCT-15 colon
UACC-62 melanoma = tested on: UACC-62 melanoma
SW-620 colon = tested on: SW-620 colon
CCRF-CEM leukemia = tested on: CCRF-CEM leukemia
HL-60(TB) leukemia = tested on: HL-60(TB) leukemia
SN12C renal = tested on: SN12C renal
COLO 205 colon = tested on: COLO 205 colon
MALME-3M melanoma = tested on: MALME-3M melanoma
OVCAR-8 ovarian = tested on: OVCAR-8 ovarian
ACHN renal = tested on: ACHN renal
MDA-MB-468 breast = tested on: MDA-MB-468 breast
HS 578T breast = tested on: HS 578T breast
CAKI-1 renal = tested on: CAKI-1 renal
HCT-116 colon = tested on: HCT-116 colon
BT-549 breast = tested on: BT-549 breast
DU-145 prostate = tested on: DU-145 prostate
SNB-19 CNS = tested on: SNB-19 CNS
IGROV1 ovarian = tested on: IGROV1 ovarian
PC-3 prostate = tested on: PC-3 prostate
NCI-H226 lung = tested on: NCI-H226 lung
TK-10 renal = tested on: TK-10 renal
MDA-MB-435 = tested on: MDA-MB-435
A549 NSCLC = tested on: A549 NSCLC
SK-MEL-28 melanoma = tested on: SK-MEL-28 melanoma
RPMI-8226 leukemia = tested on: RPMI-8226 leukemia
NCI/ADR-RES ovarian = tested on: NCI/ADR-RES ovarian
NCI-H522 lung = tested on: NCI-H522 lung
UACC-257 melanoma = tested on: UACC-257 melanoma
OVCAR-4 ovarian = tested on: OVCAR-4 ovarian
HT29 colon = tested on: HT29 colon
A498 renal = tested on: A498 renal
EKVX NSCLC = tested on: EKVX NSCLC
M14 melanoma = tested on: M14 melanoma
MOLT-4 leukemia = tested on: MOLT-4 leukemia
SF-539 CNS = tested on: SF-539 CNS
K-562 leukemia = tested on: K-562 leukemia
SF-295 CNS = tested on: SF-295 CNS
786-0 renal = tested on: 786-0 renal
LOX IMVI melanoma = tested on: LOX IMVI melanoma
KM12 colon = tested on: KM12 colon
RXF 393 renal = tested on: RXF 393 renal
NCI-H23 lung = tested on: NCI-H23 lung
MCF7 breast = tested on: MCF7 breast

COc1cc2cc(C(=O)N3C[C@@H](CCl)c4c3cc(OC(=O)N3CCN(C)[C@@H]5CSSC[C@@H]53)c3ccccc43)[nH]c2c(OC)c1OC
GI50 (OVCAR-5 ovarian): 284 nM
TGI (OVCAR-5 ovarian): 1400 nM
GI50 (OVCAR-3 ovarian): 489 nM
TGI (OVCAR-3 ovarian): 5540 nM
GI50 (HOP-92 NSCLC): 238 nM
TGI (HOP-92 NSCLC): 809 nM
GI50 (SF-268 CNS): 175 nM
TGI (SF-268 CNS): 12200 nM
GI50 (HOP-62 NSCLC): 205 nM
TGI (HOP-62 NSCLC): 925 nM
GI50 (SR leukemia): 37.3 nM
TGI (SR leukemia): 299 nM
GI50 (T-47D breast): 287 nM
TGI (T-47D breast): > 100000 nM
GI50 (HCT-15 colon): 247 nM
TGI (HCT-15 colon): 11700 nM
GI50 (UACC-62 melanoma): 147 nM
TGI (UACC-62 melanoma): 665 nM
GI50 (SW-620 colon): 264 nM
TGI (SW-620 colon): > 100000 nM
GI50 (CCRF-CEM leukemia): 105 nM
TGI (CCRF-CEM leukemia): 1390 nM
GI50 (HL-60(TB) leukemia): 52 nM
TGI (HL-60(TB) leukemia): 640 nM
GI50 (SN12C renal): 203 nM
TGI (SN12C renal): 31700 nM
GI50 (COLO 205 colon): 328 nM
TGI (COLO 205 colon): 1640 nM
GI50 (MALME-3M melanoma): 213 nM
TGI (MALME-3M melanoma): 719 nM
GI50 (OVCAR-8 ovarian): 151 nM
TGI (OVCAR-8 ovarian): 2210 nM
GI50 (ACHN renal): 28.2 nM
TGI (ACHN renal): 222 nM
GI50 (MDA-MB-468 breast): 164 nM
TGI (MDA-MB-468 breast): 392 nM
GI50 (HS 578T breast): 2260 nM
TGI (HS 578T breast): 7040 nM
GI50 (CAKI-1 renal): 248 nM
TGI (CAKI-1 renal): > 100000 nM
GI50 (HCT-116 colon): 187 nM
TGI (HCT-116 colon): > 100000 nM
GI50 (BT-549 breast): 165 nM
TGI (BT-549 breast): 593 nM
GI50 (DU-145 prostate): 62.6 nM
TGI (DU-145 prostate): > 100000 nM
GI50 (SNB-19 CNS): 224 nM
TGI (SNB-19 CNS): 6410 nM
GI50 (IGROV1 ovarian): 1530 nM
TGI (IGROV1 ovarian): > 100000 nM
GI50 (PC-3 prostate): 358 nM
TGI (PC-3 prostate): 13700 nM
GI50 (NCI-H226 lung): 1020 nM
TGI (NCI-H226 lung): 7850 nM
GI50 (TK-10 renal): 1290 nM
TGI (TK-10 renal): > 100000 nM
GI50 (MDA-MB-435): 836 nM
TGI (MDA-MB-435): 2930 nM
GI50 (A549 NSCLC): 180 nM
TGI (A549 NSCLC): > 100000 nM
GI50 (SK-MEL-28 melanoma): 261 nM
TGI (SK-MEL-28 melanoma): 762 nM
GI50 (RPMI-8226 leukemia): 161 nM
TGI (RPMI-8226 leukemia): 569 nM
GI50 (NCI/ADR-RES ovarian): 148 nM
TGI (NCI/ADR-RES ovarian): 613 nM
GI50 (NCI-H522 lung): 146 nM
TGI (NCI-H522 lung): 531 nM
GI50 (UACC-257 melanoma): 501 nM
TGI (UACC-257 melanoma): 2990 nM
GI50 (OVCAR-4 ovarian): 1620 nM
TGI (OVCAR-4 ovarian): > 100000 nM
GI50 (HT29 colon): 226 nM
TGI (HT29 colon): 37300 nM
GI50 (A498 renal): 1230 nM
TGI (A498 renal): 3880 nM
GI50 (EKVX NSCLC): 230 nM
TGI (EKVX NSCLC): 1810 nM
GI50 (M14 melanoma): 251 nM
TGI (M14 melanoma): 1060 nM
GI50 (MOLT-4 leukemia): 69.7 nM
TGI (MOLT-4 leukemia): 1780 nM
GI50 (SF-539 CNS): 172 nM
TGI (SF-539 CNS): 477 nM
GI50 (K-562 leukemia): 397 nM
TGI (K-562 leukemia): > 100000 nM
GI50 (SF-295 CNS): 133 nM
TGI (SF-295 CNS): 474 nM
GI50 (786-0 renal): 197 nM
TGI (786-0 renal): 579 nM
GI50 (LOX IMVI melanoma): 165 nM
TGI (LOX IMVI melanoma): 829 nM
GI50 (KM12 colon): 1100 nM
TGI (KM12 colon): 26700 nM
GI50 (RXF 393 renal): 132 nM
TGI (RXF 393 renal): 273 nM
GI50 (NCI-H23 lung): 45.4 nM
TGI (NCI-H23 lung): 186 nM
GI50 (MCF7 breast): 28.1 nM
TGI (MCF7 breast): 12900 nM

O=C(c1cccc(O)c1O)c1cn(Cc2ccc(F)cc2)c2cccc(O)c12
GI50 (MDA-MB-468 breast): 5460 nM
TGI (MDA-MB-468 breast): 21700 nM

COc1cc(OC)c(/C=C/C(=O)c2c(OC)cccc2OC)c(OC)c1
GI50 (MDA-MB-468 breast): 394 nM
TGI (MDA-MB-468 breast): 3160 nM

Cc1cc(C)c(C(=O)CC(=O)c2cccnc2)c(C)c1
GI50 (MDA-MB-468 breast): 8680 nM
TGI (MDA-MB-468 breast): 49800 nM

CCCCN=C(N)c1ccc(OCCSCCOc2ccc(C(N)=NCCCC)cc2)cc1
GI50 (MDA-MB-468 breast): 360 nM
TGI (MDA-MB-468 breast): 3870 nM

COc1cc[nH]c1/C=C1\C(=O)Nc2ccccc21
GI50 (MDA-MB-468 breast): 1110 nM
TGI (MDA-MB-468 breast): > 25000 nM

NC(=S)N/N=C/c1ccc(OC(=O)COc2ccc(Cl)cc2)cn1
GI50 (MDA-MB-468 breast): 2540 nM
TGI (MDA-MB-468 breast): 9590 nM

COc1ccc(C(=O)c2cc(C)c(OC)c(C)c2)c(OC)c1N(C(=O)C(Cl)Cl)C(=O)C(Cl)Cl
GI50 (MDA-MB-468 breast): 25.9 nM
TGI (MDA-MB-468 breast): 92.6 nM

COc1cc(C2=NN(C(C)=O)C(c3ccc(OC(C)=O)cc3OC(C)=O)O2)c(OC(C)=O)c2ccccc12 (configuration not stated)
GI50 (MDA-MB-468 breast): 1060 nM
TGI (MDA-MB-468 breast): 6580 nM

COC(=O)Nc1nc2ccc(Oc3ccc(NC(=O)Nc4ccccc4)cc3)cc2[nH]1
GI50 (MDA-MB-468 breast): 56.1 nM
TGI (MDA-MB-468 breast): 489 nM

O=C(Nc1ccc(Cl)cc1)c1cc(-c2ccc(F)cc2)c2sc(=O)[nH]c2n1
GI50 (MDA-MB-468 breast): 687 nM
TGI (MDA-MB-468 breast): 4970 nM

CCOC(=O)Sc1ncnc2nc[nH]c12
GI50 (MDA-MB-468 breast): 350 nM
TGI (MDA-MB-468 breast): > 100000 nM
